The target of the assay is T1, Bcl-2 protein (Recombinant Human Bcl-2 Protein) (Homo sapiens, UniProt P10415).
T1 construct: purchased Novus NBP2-34889
The assay can be described thus: Binding evaluation of mixture library compounds to Bcl-2 using AS-MS (affinity selection mass spectrometry). The following applies: AS-MS, mixture library, Bcl-2, ASMS Ratio(%)=(A−C)/B×100; for ASMS ratio (%) n = 1: replicate n = 1; for ASMS ratio (%) n = 2: replicate n = 2. Summed up:
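Pooled library of ~1200 compounds ([…] each, final) incubated with recombinant human Bcl-2 (20 μM final) in Tris-HCl pH 7.4, NaCl, Tween-20, DTT buffer, dark, 23° C., 1 h. Bound fraction recovered by SEC spin column, organic extraction, reversed-phase LC/MS. ASMS Ratio (%) = (A−C)/B×100 versus protein-free standard and SEC blank.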

T1 sequence (P10415 whole entry): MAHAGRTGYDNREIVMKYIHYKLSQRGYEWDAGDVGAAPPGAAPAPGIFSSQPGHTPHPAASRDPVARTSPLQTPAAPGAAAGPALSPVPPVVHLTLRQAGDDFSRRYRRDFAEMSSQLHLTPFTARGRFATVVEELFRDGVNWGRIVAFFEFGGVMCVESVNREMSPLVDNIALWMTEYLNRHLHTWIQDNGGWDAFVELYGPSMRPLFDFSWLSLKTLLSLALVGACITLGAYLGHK

For `CCOc1cncc(-c2csc(CN3CCN(c4ccc(C(=O)NS(=O)(=O)CC56CC7CC(CC(C7)C5)C6)nn4)CC3)c2)c1` [B2A094-01, N-(1-Adamantylmethylsulfonyl)-6-[4-[[4-(5-ethoxypyridin-3-yl)thiophen-2-yl]methyl]piperazin-1-yl]pyridazine-3-carboxamide], the “ASMS ratio (%) n = 1” value is recorded as 0.0% and the “ASMS ratio (%) n = 2” value is recorded as 0.0%. As to `CCOc1cccc(C#Cc2ccccc2CN2CCN(c3ccc(C(=O)NS(=O)(=O)CC45CC6CC(CC(C6)C4)C5)nn3)CC2)c1` [B2A095-01, N-(1-Adamantylmethylsulfonyl)-6-[4-[[2-[2-(3-ethoxyphenyl)ethynyl]phenyl]methyl]piperazin-1-yl]pyridazine-3-carboxamide], the “ASMS ratio (%) n = 1” value was found to be 1.6% and the “ASMS ratio (%) n = 2” value was 13.8%. On the same counts, the results for `CCOc1cccc(-c2ccc(C(C)N3CCN(c4ccc(C(=O)NS(=O)(=O)CC56CC7CC(CC(C7)C5)C6)cc4)CC3)cc2)c1` (stereo not drawn) [B2A097-01, N-(1-Adamantylmethylsulfonyl)-4-[4-[1-[4-(3-ethoxyphenyl)phenyl]ethyl]piperazin-1-yl]benzamide] are 9.7% and 0.4%. On the same counts, the results for `CCOc1cncc(-c2ccc(C(C)N3CCN(c4ccc(C(=O)NS(=O)(=O)CC56CC7CC(CC(C7)C5)C6)cc4)CC3)cc2)c1` (stereo not drawn) [B2A098-01, N-(1-Adamantylmethylsulfonyl)-4-[4-[1-[4-(5-ethoxypyridin-3-yl)phenyl]ethyl]piperazin-1-yl]benzamide] are 18.2% and 2.1%. The matching figures for `CCOc1cccc(-c2ccc(C(C)N3CCN(c4ccc(C(=O)NS(=O)(=O)CC56CC7CC(CC(C7)C5)C6)cc4)CC3)c(F)c2)c1` (stereo not drawn) [B2A099-01, N-(1-Adamantylmethylsulfonyl)-4-[4-[1-[4-(3-ethoxyphenyl)-2-fluorophenyl]ethyl]piperazin-1-yl]benzamide]: 0.0% and 0.0%.

Turning to `CCOc1cncc(-c2ccc(C(C)N3CCN(c4ccc(C(=O)NS(=O)(=O)CC56CC7CC(CC(C7)C5)C6)cc4)CC3)c(F)c2)c1` (stereo not drawn) [B2A100-01, N-(1-Adamantylmethylsulfonyl)-4-[4-[1-[4-(5-ethoxypyridin-3-yl)-2-fluorophenyl]ethyl]piperazin-1-yl]benzamide], the “ASMS ratio (%) n = 1” value is 0.0% and the “ASMS ratio (%) n = 2” value is recorded as 0.0%. Turning to `CCOc1cccc(-c2csc(C(=O)N3CCN(c4ccc(C(=O)NS(C)(=O)=O)nn4)CC3)c2)c1` [B2I001-01, 6-[4-[4-(3-Ethoxyphenyl)thiophene-2-carbonyl]piperazin-1-yl]-N-methylsulfonylpyridazine-3-carboxamide], the “ASMS ratio (%) n = 1” value turned out to be 0.0%. For `CCOc1cncc(-c2csc(C(=O)N3CCN(c4ccc(C(=O)NS(C)(=O)=O)nn4)CC3)c2)c1` [B2I002-01, 6-[4-[4-(5-Ethoxypyridin-3-yl)thiophene-2-carbonyl]piperazin-1-yl]-N-methylsulfonylpyridazine-3-carboxamide], the “ASMS ratio (%) n = 1” value is on record as 0.0% and the “ASMS ratio (%) n = 2” value amounted to 0.0%.

For the molecule `CCOc1cccc(-c2ccc(C(=O)N3CCN(c4ccc(C(=O)NS(C)(=O)=O)nn4)CC3)cc2C)c1` [B2I003-01, 6-[4-[4-(3-Ethoxyphenyl)-3-methylbenzoyl]piperazin-1-yl]-N-methylsulfonylpyridazine-3-carboxamide], the “ASMS ratio (%) n = 1” value is 0.0% and the “ASMS ratio (%) n = 2” value is 0.0%. For the molecule `CCOc1cncc(-c2ccc(C(=O)N3CCN(c4ccc(C(=O)NS(C)(=O)=O)nn4)CC3)cc2C)c1` [B2I004-01, 6-[4-[4-(5-Ethoxypyridin-3-yl)-3-methylbenzoyl]piperazin-1-yl]-N-methylsulfonylpyridazine-3-carboxamide], the “ASMS ratio (%) n = 1” value is 0.9% and the “ASMS ratio (%) n = 2” value is reported as −0.3%. The matching figures for `CCOc1cccc(-c2ccc(C(=O)N3CCN(c4ccc(C(=O)NS(C)(=O)=O)nn4)CC3)cc2F)c1` [B2I005-01, 6-[4-[4-(3-Ethoxyphenyl)-3-fluorobenzoyl]piperazin-1-yl]-N-methylsulfonylpyridazine-3-carboxamide]: 0.0% and 0.0%.

For the molecule `CCOc1cncc(-c2ccc(C(=O)N3CCN(c4ccc(C(=O)NS(C)(=O)=O)nn4)CC3)cc2F)c1` [B2I006-01, 6-[4-[4-(5-Ethoxypyridin-3-yl)-3-fluorobenzoyl]piperazin-1-yl]-N-methylsulfonylpyridazine-3-carboxamide], the “ASMS ratio (%) n = 1” value came to 0.0% and the “ASMS ratio (%) n = 2” value is reported as 0.0%.

On to `CCOc1cccc(C#Cc2ccccc2C(=O)N2CCN(c3ccc(C(=O)NS(C)(=O)=O)nn3)CC2)c1` [B2I007-01, 6-[4-[2-[2-(3-Ethoxyphenyl)ethynyl]benzoyl]piperazin-1-yl]-N-methylsulfonylpyridazine-3-carboxamide], for which the “ASMS ratio (%) n = 1” value is given as −1.6% and the “ASMS ratio (%) n = 2” value is −1.6%. Consider `CCOc1cncc(C#Cc2ccccc2C(=O)N2CCN(c3ccc(C(=O)NS(C)(=O)=O)nn3)CC2)c1` [B2I008-01, 6-[4-[2-[2-(5-Ethoxypyridin-3-yl)ethynyl]benzoyl]piperazin-1-yl]-N-methylsulfonylpyridazine-3-carboxamide], for which the “ASMS ratio (%) n = 1” value is 0.0% and the “ASMS ratio (%) n = 2” value came out at 0.0%.

As for `CCOc1cccc(C#Cc2cncc(C(=O)N3CCN(c4ccc(C(=O)NS(C)(=O)=O)nn4)CC3)c2)c1` [B2I009-01, 6-[4-[5-[2-(3-Ethoxyphenyl)ethynyl]pyridine-3-carbonyl]piperazin-1-yl]-N-methylsulfonylpyridazine-3-carboxamide], the “ASMS ratio (%) n = 1” value was 0.0% and the “ASMS ratio (%) n = 2” value is listed as 0.0%. Turning to `CCOc1cccc(-c2ccccc2CCC(=O)N2CCN(c3ccc(C(=O)NS(C)(=O)=O)nn3)CC2)c1` [B2I011-01, 6-[4-[3-[2-(3-Ethoxyphenyl)phenyl]propanoyl]piperazin-1-yl]-N-methylsulfonylpyridazine-3-carboxamide], the “ASMS ratio (%) n = 1” value turned out to be 0.0% and the “ASMS ratio (%) n = 2” value came to 0.0%. As to `CCOc1cncc(-c2ccccc2CCC(=O)N2CCN(c3ccc(C(=O)NS(C)(=O)=O)nn3)CC2)c1` [B2I012-01, 6-[4-[3-[2-(5-Ethoxypyridin-3-yl)phenyl]propanoyl]piperazin-1-yl]-N-methylsulfonylpyridazine-3-carboxamide], the “ASMS ratio (%) n = 1” value is reported as −4.0% and the “ASMS ratio (%) n = 2” value was −0.2%. On the same counts, the results for `CCOc1cccc(-c2ccc(C(=O)N3CCN(c4ccc(C(=O)NS(C)(=O)=O)nn4)CC3)c3ccccc23)c1` [B2I013-01, 6-[4-[4-(3-Ethoxyphenyl)naphthalene-1-carbonyl]piperazin-1-yl]-N-methylsulfonylpyridazine-3-carboxamide] are 0.0% and 0.0%.

Consider `CCOc1cncc(-c2ccc(C(=O)N3CCN(c4ccc(C(=O)NS(C)(=O)=O)nn4)CC3)c3ccccc23)c1` [B2I014-01, 6-[4-[4-(5-Ethoxypyridin-3-yl)naphthalene-1-carbonyl]piperazin-1-yl]-N-methylsulfonylpyridazine-3-carboxamide], for which the “ASMS ratio (%) n = 1” value is listed as 1.0% and the “ASMS ratio (%) n = 2” value is recorded as 2.3%. On the same counts, the results for `CCOc1cccc(-c2cc(C(=O)N3CCN(c4ccc(C(=O)NS(C)(=O)=O)nn4)CC3)cc(C(C)(C)C)c2)c1` [B2I015-01, 6-[4-[3-tert-Butyl-5-(3-ethoxyphenyl)benzoyl]piperazin-1-yl]-N-methylsulfonylpyridazine-3-carboxamide] are 0.0% and 0.0%. Take `CCOc1cncc(-c2cc(C(=O)N3CCN(c4ccc(C(=O)NS(C)(=O)=O)nn4)CC3)cc(C(C)(C)C)c2)c1` [B2I016-01, 6-[4-[3-tert-Butyl-5-(5-ethoxypyridin-3-yl)benzoyl]piperazin-1-yl]-N-methylsulfonylpyridazine-3-carboxamide]: the “ASMS ratio (%) n = 1” value was found to be 0.0% and the “ASMS ratio (%) n = 2” value is 0.0%. Turning to `CCOc1cccc(-c2cc(C(=O)N3CCN(c4ccc(C(=O)NS(C)(=O)=O)nn4)CC3)cc(C(F)(F)F)c2)c1` [B2I017-01, 6-[4-[3-(3-Ethoxyphenyl)-5-(trifluoromethyl)benzoyl]piperazin-1-yl]-N-methylsulfonylpyridazine-3-carboxamide], the “ASMS ratio (%) n = 1” value is recorded as 0.0% and the “ASMS ratio (%) n = 2” value came to 0.0%. `CCOc1cncc(-c2cc(C(=O)N3CCN(c4ccc(C(=O)NS(C)(=O)=O)nn4)CC3)cc(C(F)(F)F)c2)c1` [B2I018-01, 6-[4-[3-(5-Ethoxypyridin-3-yl)-5-(trifluoromethyl)benzoyl]piperazin-1-yl]-N-methylsulfonylpyridazine-3-carboxamide]: the “ASMS ratio (%) n = 1” value amounted to 0.0% and the “ASMS ratio (%) n = 2” value was determined as 0.0%. Regarding `CCOc1cccc(C#Cc2cc(C(=O)N3CCN(c4ccc(C(=O)NS(C)(=O)=O)nn4)CC3)cc(C(F)(F)F)c2)c1` [B2I019-01, 6-[4-[3-[2-(3-Ethoxyphenyl)ethynyl]-5-(trifluoromethyl)benzoyl]piperazin-1-yl]-N-methylsulfonylpyridazine-3-carboxamide], the “ASMS ratio (%) n = 1” value was determined as 0.0%. `CCOc1cncc(C#Cc2cc(C(=O)N3CCN(c4ccc(C(=O)NS(C)(=O)=O)nn4)CC3)cc(C(F)(F)F)c2)c1` [B2I020-01, 6-[4-[3-[2-(5-Ethoxypyridin-3-yl)ethynyl]-5-(trifluoromethyl)benzoyl]piperazin-1-yl]-N-methylsulfonylpyridazine-3-carboxamide]: the “ASMS ratio (%) n = 1” value stood at 0.0% and the “ASMS ratio (%) n = 2” value is recorded as 0.0%.
